Our source for the IC50 values is patent publication US20080114041A1, “Benzothiazolesulfonamides” (AstraZeneca AB, priority 2004, published 2008).

Usually IC50 stands for the concentration at which inhibition is half-maximal.

In this experiment the target is T1, hVR1 (Homo sapiens, UniProt Q8NER1).
T1 construct: expressed in transfected cells
In words: hVR1 FLIPR (Fluorometric Image Plate Reader) screening assay. In kind it is cell-based. As to conditions: transfected CHO cells stably expressing hVR1; inhibition of calcium increase after agonist (50 nM capsaicin or MES buffer pH 5.2); agonist not given. The protocol:
1. hVR1 FLIPR (Fluorometric Image Plate Reader) Screening Assay
Transfected CHO cells, stably expessing hVR1 (15,000 cells/well) are seeded in 50 ul media in a black clear bottom 384 plate (Greiner) and grown in a humidified incubator (37° C., 2% CO2), 24-30 hours prior to experiment.
Subsequently, the media is removed from the cell plate by inversion and 2 μM Fluo-4 is added using a multidrop (Labsystems). Following the 40 minutes dye incubation in the dark at 37° C. and 2% CO2, the extracellular dye present is washed away using an EMBLA (Scatron), leaving the cells in 40 ul of assay buffer (1×HBSS, 10 mM D-Glucose, 1 mM CaCl2, 10 mM HEPES, 10×7.5% NaHCO3 and 2.5 mM Probenecid).
FLIPR Assay—IC50 Determination Protocol
For IC50 determinations the fluorescence is read using FLIPR filter 1 (em […]). A cellular baseline recording is taken for 30 seconds, followed by a 20 μl addition of 10, titrated half-log concentrations of the test compound, yielding cellular concentration ranging from 3 μM to 0.1 nM. […] This consequently leading to a reduction in fluorescence signal and providing a reduced fluorescence reading, compared with no compound, buffer controls. Data is exported by the FLIPR program as a sum of fluorescence calculated under the curve upon the addition of capsaicin. […]

T1 sequence (Q8NER1 whole entry): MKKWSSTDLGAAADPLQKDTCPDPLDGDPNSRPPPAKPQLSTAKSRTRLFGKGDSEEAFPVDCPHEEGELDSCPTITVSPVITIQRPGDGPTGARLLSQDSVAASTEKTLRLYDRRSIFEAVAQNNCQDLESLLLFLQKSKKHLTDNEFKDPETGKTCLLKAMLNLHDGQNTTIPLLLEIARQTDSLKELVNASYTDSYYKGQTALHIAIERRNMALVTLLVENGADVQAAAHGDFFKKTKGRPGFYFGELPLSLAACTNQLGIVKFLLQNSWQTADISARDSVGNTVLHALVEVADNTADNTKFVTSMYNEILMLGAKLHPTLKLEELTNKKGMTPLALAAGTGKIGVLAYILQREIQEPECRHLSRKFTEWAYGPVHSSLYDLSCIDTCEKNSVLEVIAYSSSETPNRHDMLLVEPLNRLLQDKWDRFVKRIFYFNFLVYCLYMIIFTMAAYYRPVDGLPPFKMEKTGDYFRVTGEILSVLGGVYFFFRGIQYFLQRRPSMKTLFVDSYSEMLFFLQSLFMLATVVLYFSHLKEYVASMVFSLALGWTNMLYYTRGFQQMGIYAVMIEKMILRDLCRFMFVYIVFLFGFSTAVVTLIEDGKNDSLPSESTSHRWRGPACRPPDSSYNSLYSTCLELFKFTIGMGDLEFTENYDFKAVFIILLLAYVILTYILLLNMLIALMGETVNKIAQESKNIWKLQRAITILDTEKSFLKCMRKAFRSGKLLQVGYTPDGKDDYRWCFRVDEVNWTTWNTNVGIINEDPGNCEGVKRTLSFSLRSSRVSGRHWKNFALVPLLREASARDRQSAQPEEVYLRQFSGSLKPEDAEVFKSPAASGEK

On to `O=S(=O)(NCc1cccc(C(F)(F)F)c1)c1ccc2sc(CO)nc2c1` [Compound 5, 2-(hydroxymethyl)-N-[3-(trifluoromethyl)benzyl]-1,3-benzothiazole-5-sulfonamide], for which the IC50 turned out to be 2870 nM.
